The test system of experiment [1] is murine cytotoxic T-cell line, CT6. Put plainly: Cytokine-induced proliferation of the cytotoxic T-cell line CT6 / CT-6.1. The class given is cell-based. The following applies: added one hour prior to IL-2, thymidine at 48 hours. The protocol: Another assay in this example was used to determine inhibitive activity of the inventive compounds on direct IL-2-induced proliferation in a murine cytotoxic T-cell line, CT6. The CT6 cell line is an IL-2-dependent cell line. IL-2 was removed from the medium for 24 hours prior to stimulation. […] 49, 50, 45, 43 or 41 were added at various concentrations. The cells were stimulated with IL-2 and amount of tritiated thymidine dye incorporated was measured 48 hours later.
In another related assay, inhibitory effects on CT6 cell proliferation is examined. CT6 cells are a murine IL-2 dependent, cytotoxic T cell line that proliferate in response to murine IL-2 (15 U/ml).
CT-6.1 cells were starved overnight and stimulated with IL-2 (20 ng/ml). Twenty hours later, cells were labeled for 4 hours with ^3H-TdR and counted by liquid scintillation.
CT6.1 cells were cultured with IL-2 with or without the addition of inventive compound no. 45 (2 µM) and viable cells counted for up to 8 days. On day 4, two cultures previously incubated with compound no. 45, were washed and recultured with fresh IL-2 with or without compound no. 45 (2 µM).
Procedurally, CT-6.1 cells were starved overnight and stimulated with either IL-2 (20 ng/ml), IL-4 (50 ng/ml) or IL-7 (25 ng/ml). ^3H-TdR was added at 20 hours, cells were harvested 4 hours later, and the incorporation of ^3H-TdR was determined.

For experiment [2], the system named is murine thymocyte proliferation. Description: Thymocyte proliferation co-stimulated by ConA and IL-2 (tritiated thymidine). To be noted: Mus musculus, Thymocyte, 96 h; ConA and IL-2 (15 U/ml), 4 days. The class given is cell-based, Balb/C mice. The protocol: ConA, used to activate CD3, induces T-cell proliferation and differentiation. Thymuses, obtained from normal, female Balb/C mice, were dissociated and plated into 96-well plates at a density of 2 x 10^5 cells/well. ConA (0.25 mg/ml) and IL-2 (15 U/ml) were added to the wells. The cells were incubated for 4 days at 37°C. On day 4, the cells were pulsed with tritiated thymidine and incubated for an additional 4 hours. The amount of tritiated thymidine dye incorporated by the harvested cells was determined in a liquid scintillation counter. Drug doses (shown in figs. 1A and 1B) were added two hours prior to ConA and IL-2 activation.
Thymuses, obtained from normal, female Balb/C mice, were dissociated and plated into 96-well plates at a density of 2 x 10^5 cells/well. ConA (0.25 mg/ml) and IL-2 (15 U/ml) were added to the wells. The cells were incubated for 4 days at 37 °C. On day 4, the cells were pulsed with tritiated thymidine and incubated for an additional 4 hours. The amount of tritiated thymidine dye incorporated by the harvested cells was determined in a liquid scintillation counter. Doses (shown in figs. 26A, 26B and 26C) were added two hours prior to ConA and IL-2 activation.
In another in vitro protocol, thymocyte proliferation was induced by sub-mitogenic doses of Con A (0.25 µg/ml) and IL-2 (20 ng/ml). Cells were stimulated for 96 hours, prior to addition of ^3H-TdR for 4 hours. The cells were harvested and incorporation of ^3H-TdR was determined.
45 on co-stimulated thymocyte proliferation. In an assay procedure, murine thymocytes were stimulated with ConA and IL-2 with 1 µM compound no. 45 added either 1 hour prior to IL-2 (-1), simultaneous with IL-2 (0) or at various times following IL-2 addition (1-92 hour). At 92 hours the thymocytes were pulsed with ^3H-TdR, harvested and counted by scintillation 4 hours later.

The subject of the next experiment is Balb/3T3 cells. Description: PDGF-induced proliferation of Balb/3T3 cells. The class given is cell-based, murine. As for the experimental part:
Balb/3T3 cells respond vigorously to PDGF stimulation, and are useful in vitro models for further study of PDGF-induced proliferation. Disregulated PDGF-proliferative response has been linked to a variety of diseases, including, e.g., restenosis, atherosclerosis, fibrosis, and tumor cell angiogenesis. Cells were plated in low serum-containing medium for 24 hours prior to stimulation with various concentrations of inventive compound no. 45. PDGF-BB was added at constant 10 µM concentrations. Tritiated thymidine was added and cells harvested for scintillation counting 24 hours later. Figure 15 illustrates a dose response curve from this assay, including an IC50 value of approximately 0.08 µM, exemplifying inhibitory activity of the tested compound.
In another investigation similar to the Balb/3T3 proliferation assay of Example 32, IC50 and ID50 values for inventive compounds nos. 70, 45, 59 and 58 were determined. LD50 values were determined using a cytotoxicity assay, as in Example 32. In these assays, Balb/3T3 cells, stimulated with PDGF and treated with one of the above inventive compounds in a manner identical to the tritiated thymidine procedure above, were incubated instead with a viable dye BCECF, a fluorescent dye. Fluorescence was measured using a fluorescent plate reader. […] Figure 17 illustrates assay results by comparing […] value against LD50 values for the inventive compounds tested. Most compounds tested were non-cytotoxic yet were significant inhibitors of proliferation.
Inventive compounds nos. 77,7 and 78 were added at various concentrations one hour prior to PDGF stimulation. PDGF-BB was added at a constant 10 µM concentrations along with tritiated thymidine. The cells were allowed to incubate for one day, following addition of PDGF and tritiated thymidine. 24 Hours later, the cells were harvested and counted by liquid scintillation counting. Results for compounds nos.77, 7 and 78 are shown in figures 26A, 26B and 26C, respectively. Background counts were approximately 1% of control levels.
Results obtained for compound no. 50 in the PDGF-induced proliferation of Balb/3T3 cells (Example 32), reported in figure 28, illustrate the inhibitive properties of this compound on proliferation induced by PDGF, representing significant inhibition at concentrations as low as 2 µM. […] 50, are capable of reducing tumor cell growth by blocking oncogene-induced events.
Figure 66 reports that inventive compound no. 45 inhibited PDGF-induced murine BALB/3T3 proliferation. Procedurally, cells were rested overnight in 0.2% serum and stimulated with 25 ng/ml PDGF. Compound no. 45 was added 1 hour prior to stimulation. Cells were pulsed with ^3H-TdR 24 hours later and harvested for scintillation counting 4 hours later.
Figures 66A and 66B are a dose response and cytoxicity curves, respectively, for inhibition of proliferation in Balb/3T3 cells by inventive compound no. 58. In the assay protocol, cells were starved overnight in 0.5% serum containing medium, followed by stimulation with 20 ng/ml PDGF for 24 hours. The cells were labeled with ^3H-TdR for 4 hours and harvested and counted by scintillation. Figure 66B illustrates that inventive compound no.
Figure 68 illustrates an effect of the delayed addition of inventive compound no. 58 to Balb/3T3 proliferation in response to PDGF-BB. Cells were stimulated with PDGF (20 ng/ml) and inventive compound no. 58 added either simultaneous with PDGF (0) or at various times after addition of PDGF, up to 6 hours later. At 24 hours, the cells were pulsed with ^3H-TdR and counted by scintillation four hours later. […] 58 was added as late as 20 hours after PDGF.
Figure 69 illustrates that inventive compound no. […] In the assay protocol, cells were serum starved for 24 hours before adding either 20 ng/ml PDGF or 10% serum. The cells were pulsed with ^3HTdR 24 hours later. Inventive compound no.

The subject of another experiment is CMV promoter activity. Put plainly: microbe, parasite or virus in culture. To be noted: transformed (adenovirus) cells. The class given is cell-based. The text has this:
This example illustrates data of proliferative activity of various inventive compounds for inducing CMV promoter activity. The CMV promoter assay measures gene transcription and translation activity wherein any active compounds will have cytotoxic activity for inhibiting cellular protein synthesis in transformed (adenovirus) cells. Compound no. […]

The subject of experiment [3] is proliferative PMBC response to allogeneic stimulation. Description: Two-way mixed lymphocyte reaction. Type of experiment: cell-based. The following applies: Lymphocyte; figs. 2A-2C. The text has this:
This example illustrates therapeutic potential for various autoimmune and inflammatory diseases of the inventive compounds by comparing potency (inhibitive activity) with cytotoxicity data obtained using the following indicative assay procedures. In a mixed lymphocyte reaction assay of compounds nos. […] Compounds nos. […] 2A and 2B. Both compounds nos. […] 2C.
Compound no. […] Compound no.

In the next experiment the test system is mast cell degranulation. Put plainly: Serotonin release assay for inhibition of mast cell degranulation. The following applies: Concentration 50 µM. The class given is cell-based. From the text:
This assay provides an in vitro model for an allergy and asthma therapeutic product. […]

A further experiment relates to Human stromal cells. Put plainly: Stromal cell proliferation in response to PDGF-BB. The class given is cell-based. To be noted: 50 ng/ml PDGF-BB. The protocol: This assay is useful for predicting therapeutic activity for preventing or treating restenosis, atherosclerosis and coronary artery disease. Human stromal cells were starved in serum-free media for one day and then stimulated with 50 ng/ml PDGF-BB. Inventive compounds, at various concentrations, were added one hour prior to PDGF stimulation. PDGF and tritiated thymidine were added and the cells allowed to incubate for one day, following addition of the PDGF and thymidine. 24 Hours later, the cells were harvested and counted by liquid scintillation counting. Results for compounds nos. Background counts (i.e., starved cells) were approximately 1% of control levels. […] 30, 28, 29, 32 and 31, respectively.

Each structure is given as a SMILES string.

Take `CCCCCCCCCCNCC(O)CCCCCCCn1c(=O)c2c(ncn2C)n(C)c1=O` (centres unmarked) [compound 41, 1-(9-Decylamino-8-hydroxynonyl)-3,7-dimethylxanthine]: the “inhibition of direct IL-2-induced proliferation” value in experiment [1] is recorded as “inhibited direct IL-2-induced CT6 proliferation”.

Consider `CCCCCCCCCCCCCCNCC(O)CCCCCCCn1c(=O)c2c(ncn2C)n(C)c1=O` (centres unmarked) [compound 43, 1-(9-Tetradecylamino-8-hydroxynonyl)-3,7-dimethylxanthine], for which the “inhibition of direct IL-2-induced proliferation” value in experiment [1] is recorded as “inhibited direct IL-2-induced CT6 proliferation”. In general, IC50 refers to the concentration at which inhibition is half-maximal. A lower IC50 goes with greater potency in that assay. For `CCCCCCCCNCC(O)CCCCCCCCC(=O)O` (centres unmarked) [compound 78, 11-Octylamino-10-hydroxyundecanoic acid], the IC50 in experiment [2] came out at 12.4 µM. For the same compound, the “inhibition of PDGF-induced proliferation” value in the experiment with Balb/3T3 cells is “inhibit Balb/3T3 proliferation”.

`CCCCCCCCNCC(O)CCCCCCCCC(=O)NC` (centres unmarked) [compound 79, 11-Octylamino-10-hydroxyundecanoic acid N-methyl amide] came in with an IC50 in experiment [2] of 10.6 µM.

Consider `CCCCCCCCNCC(O)CCCCCCCCC(=O)N(C)C` (centres unmarked) [compound 80, 11-Octylamino-10-hydroxyundecanoic acid N,N-dimethyl amide], for which the IC50 in experiment [2] came out at 3.8 µM. As for `CCCNCC(O)CCCCNC(=O)CCCC(=O)NCCC` (centres unmarked) [compound no. 5, N^2-(5-hydroxy-6-(N^3-propyl)aminohexyl)-(N^1-propyl)glutaric acid], the IC50 in the experiment with CMV promoter activity was > 500 µM; in experiment [3] it was > 250 µM. As for `CCCCCCCCNCC(O)CCCCCCCCCO` (centres unmarked) [compound no. 7, 1-Octylamino-2,11-undecadiol], in the experiment on Balb/3T3 cells, the “inhibition of PDGF-induced proliferation” value is listed as “inhibit Balb/3T3 proliferation”. For the compound `CCCNCC(O)CCCCn1c(=O)ccn(C)c1=O` (centres unmarked) [compound no. 19, 3-(5-hydroxy-6-(N-propyl)aminohexyl)-1-methyluracil], the IC50 with CMV promoter activity is > 500 µM. Also, the “% Inhibition” value in the experiment with mast cell degranulation was “inactive”.

As to `CCCNCC(O)CCCCn1c(=O)c(C)cn(C)c1=O` (centres unmarked) [compound no. 26, 3-(6-Propylamino-5-hydroxyhexyl)-1-methylthymine], the concentration for half-maximal inhibition (IC50) in the experiment with CMV promoter activity is > 500 µM; in experiment [3] it was > 250 µM. Consider `Cn1cnc2c1c(=O)n(CCCCC(O)CNCCCCc1ccccc1)c(=O)n2C` (centres unmarked) [compound no. 29, 1-(5-hydroxy-6-(N-(4-phenyl)butyl)aminohexyl)-3,7-dimethylxanthine], for which the results for the IC50 in the experiment with CMV promoter activity and in the experiment on Human stromal cells were > 100 µM and 40 µM, respectively. On to `Cn1cnc2c1c(=O)n(CCCCC(O)CNCC1CCCCC1)c(=O)n2C` (centres unmarked) [compound no. 31, 1-(5-hydroxy-6-(N-cyclohexylmethyl)aminohexyl)-3,7-dimethylxanthine], for which the IC50 is > 100 µM in the experiment with CMV promoter activity and > 50 µM in the experiment with Human stromal cells. Take `Cn1cnc2c1c(=O)n(CCCCC(O)CNCCCCCCO)c(=O)n2C` (centres unmarked) [compound no. 32, 1-(5-hydroxy-6-(N-(6-hydroxy)hexyl)aminohexyl)-3,7-dimethylxanthine]: the IC50 with CMV promoter activity was > 100 µM; in the experiment on Human stromal cells, > 50 µM. As to `CCCCCCCCNCC(O)CCCCCCCCCN(C)C(C)=O` (centres unmarked) [compound no. 77], the “inhibition of PDGF-induced proliferation” value in the experiment on Balb/3T3 cells is on record as “inhibit Balb/3T3 proliferation”.
